In paper PMC10870298, “Rational Design of Antifungal Peptides Based on the γ-Core Motif of a Neosartorya (Aspergillus) fischeri Antifungal Protein to Improve Structural Integrity, Efficacy, and Spectrum” (ACS Omega, 2024):
Read-outs that look alike come from different tables or passages of the source. Residues, ends and D or L forms follow the SMILES beside them. *: point of attachment. tBu = CC(C)(C)*

Assays:
A. fumigatus CBS 101355 = type: cell-based, Aspergillus fumigatus
Description: (§1) The lyophilized and stored peptides were dissolved in sterile ddH2O (5 mg mL^–1). Then, half of the volume of the peptide stock was tested for antifungal activity and stored at −20 °C until RP-HPLC and ECD analyses. This peptide sample is termed the −20 °C sample. The other half volume of the stock was stored at 4 °C for 7 days, tested for antifungal activity, and stored at −20 °C until RP-HPLC and ECD analyses. This peptide sample is referred to as the 4 °C sample.
(§2) MICs of NFAP γ-core peptide derivatives were determined against C. albicans SC5314 and A. fumigatus CBS 101355. These fungi were maintained on yeast peptone dextrose agar (YPD: 10 g L^–1 yeast extract, 20 g L^–1 peptone, 20 g L^–1D-glucose, 15 g L^–1 agar) and malt extract agar (MEA, Sigma-Aldrich) slants at 4 °C, respectively. Susceptibility tests were performed in low cationic medium (LCM: 5 g L^–1D-glucose, 0.25 g L^–1 yeast extract, 0.125 g L^–1 peptone) according to Tóth et al. (2018)[16] and Tóth et al. (2020)[19] for yeasts and molds, respectively, with slight modifications. Briefly, 100 μL NFAP γ-core peptide (0.39–400 μg mL^–1 in two-fold serial dilutions in LCM) was mixed with 100 μL of 2 × 10^5 mL^–1 mid-log phase C. albicans cells or freshly harvested A. fumigatus conidia in LCM in a flat-bottom 96-well microtiter plate (TC Plate 96 Well, Suspension, F; Sarstedt, Nümbrecht, Germany). A mixture of 100 μL of medium (LCM) without NFAP γ-core peptide derivative and 100 μL of cell or conidium suspension served as the untreated growth control, whereas 200 μL of LCM was used for background calibration. The plates were incubated statically for 48 h (C. albicans) or 72 h (A. fumigatus) at 30 °C. The absorbance (OD620) of each well was measured after shaking for 5 s using a microtiter plate reader (SPECTROstar Nano; BMG Labtech, Ortenberg, Germany). The absorbance of the untreated control was taken as 100% growth for the MIC calculation. MIC was defined as the lowest peptide concentration that reduced fungal growth by […] compared with the untreated control. Susceptibility tests were performed in two technical replicates and were repeated at least two times.

C. albicans SC5314 [1] = type: cell-based, Candida albicans; details: SC5314, 48 h
Description: as §1, §2

C. albicans SC5314 [2] = assay: Cell-killing efficacy: growth kinetics of high-density culture and drop viability on YPD agar; type: cell-based, Candida albicans; details: for growth of high-density C. albicans culture: OD600 = 0.2 mid-log cells, LCM, 30 °C, 24 h; for proportion of cells able to multiply (culture drops on YPD agar after treatment): 24 h treatment at 30 °C, then 5 μL drops on YPD agar 24 h at 30 °C
Description: Compared with MIC determination, monitoring the growth kinetics of high-density cell cultures in the presence of various peptide concentrations allows for detailed insight into the cell-killing efficacy over time and how cysteine modifications influence it. Therefore, the growth of high-density C. albicans cell culture (OD600 = 0.2) was monitored in the presence of 0.5× MIC, 1× MIC, and 2× MIC of the NFAP γ-core peptides.
The experiment was conducted in a flat-bottom 96-well microtiter plate (TC Plate 96 Well, Suspension, F; Sarstedt, Nümbrecht, Germany): 100 μL of OD600 = 0.2 mid-log phase cells prepared in LCM were mixed with 100 μL of 1× MIC, 2× MIC, or 4× MIC of the peptide diluted in LCM. The plates were incubated statically at 30 °C for 24 h. The absorbance (OD600) of each well was then measured after shaking for 5 s every hour using a microtiter plate reader (BioTek Synergy HTX Multi-Mode Microplate Reader; Agilent Technologies, Santa Clara, CA, USA). Untreated cells (100 μL LCM mixed with 100 μL OD600 = 0.2 mid-log phase cells prepared in LCM) served as growth controls. To examine the viability of the treated C. albicans cells, 5–5 μL cultures from each well were dropped onto the YPD agar plate after the last OD600 measurement and allowed to dry before incubation at 30 °C for 24 h. The plates were photographed (Versa Doc Imaging System 4000 MP; Bio-Rad, Hercules, CA, USA). These experiments were repeated two times, involving three technical replicates.

[3] = Structural integrity (disulfide bridge formation on storage) by RP-HPLC; type: physicochemical
Description: The half volume of the dissolved lyophilized peptides was promptly stored at −20 °C for 7 days. The other half volume of these peptides was stored at 4 °C for 7 days (oxidative condition) and then at −20 °C until RP-HPLC and electronic circular dichroism (ECD) analyses were performed. Herein, these peptide samples are referred to as −20 and 4 °C samples, respectively.
as §1
Crude peptides were purified by semipreparative RP-HPLC using a solvent system of (A) 0.1% TFA and (B) 80% acetonitrile, 0.1% TFA, and a linear gradient from 0 to 30% (B) in 60 min. Purification was performed on a Phenomenex Jupiter Proteo 90 Å column (250 × 10 mm) using a Shimadzu HPLC apparatus (Berlin, Germany). Absorbance was detected at 220 nm. Purity was evaluated by analytical RP-HPLC using a Phenomenex Luna 10 μ C18 100 A column and an Agilent 1100 HPLC instrument (Palo Alto, CA, USA).

[4] = tested on: plant pathogenic filamentous fungi; details: previous studies; cited from earlier work
Excerpt: Presumably, these peptides exert an antifungal mechanism through membrane disruption,[17] and the high positive net charge supports this mechanism. Additionally, neither hydrop ...

[5] = tested on: human cell lines (monocytes, colonic epithelial cells, keratinocytes); details: cited from earlier work
Excerpt: (§3) The clinical application of antimicrobial peptides is limited by their potential hemolytic activity, toxicity, immunogenicity, and other side effects.[27] […] Herein, we investigated how cysteine–serine substitution(s) and S-tert-butylation of these peptides influence hemolytic activ ...

sheep blood = details: cited from earlier work
Excerpt: as §3

[6] = 4 °C sample: 5 mg mL^–1 in sterile ddH2O stored at 4 °C for 7 days (oxidative condition)
[7] = 1 and 2× MIC, OD600 hourly, repeated two times, three technical replicates

Compound | MIC (A. fumigatus CBS 101355; CBS 101355, 72 h) [μg mL^–1] | MIC (C. albicans SC5314 [1]) [μg mL^–1] | proportion of cells able to multiply (culture drops on YPD agar after treatment) (C. albicans SC5314 [2]; 2× MIC) | growth of high-density C. albicans culture (C. albicans SC5314 [2]; 2× MIC) | oxidation / disulfide bridge formation (in words) [3, 6] | antifungal activity [4] | also measured
CC[C@H](C)[C@H](NC(=O)[C@H](CCCCN)NC(=O)[C@H](CSC(C)(C)C)NC(=O)[C@H](CCCCN)NC(=O)[C@@H](NC(=O)[C@H](CCCCN)NC(=O)[C@@H](NC(=O)[C@H](CCC(=O)O)NC(C)=O)[C@@H](C)CC)[C@@H](C)CC)C(=O)N[C@@H](CCCCN)C(=O)N[C@@H](CCCCN)C(=O)N[C@H](C(=O)N[C@@H](CCCCN)C(=O)N[C@@H](CSC(C)(C)C)C(=O)N[C@@H](CCCCN)C(N)=O)[C@@H](C)CC [NFAPimpγGZ^S-tBu] (Ac-EIKIKC(tBu)KIKKIKC(tBu)K-NH2) | 25 | 25 | highly reduce the proportion of cells able to multiply |  |  |  | growth of high-density C. albicans culture (C. albicans SC5314 [2]; 1× MIC): inhibited the growth
Ac-EIKIKSKIKKIKSK-NH2 [NFAPimpγGZ^C6S,C13S] | 50 | 25 |  | could not inhibit the growth |  |  | 
Ac-EIKIKCKIKKIKSK-NH2 [NFAPimpγGZ^C13S] | 50 | 25 |  | total or high growth inhibitions |  |  | 
CC(=O)N[C@@H](CCC(=O)O)C(=O)N[C@@H](Cc1ccc(O)cc1)C(=O)N[C@@H](CCCCN)C(=O)NCC(=O)N[C@@H](CCC(=O)O)C(=O)N[C@@H](CS)C(=O)N[C@@H](Cc1ccccc1)C(=O)N[C@H](C(=O)N[C@@H](CCCCN)C(=O)N[C@@H](CC(=O)O)C(=O)N[C@@H](CC(N)=O)C(=O)N[C@H](C(=O)N[C@@H](CS)C(=O)N[C@@H](CCCCN)C(N)=O)[C@@H](C)O)[C@@H](C)O [NFAPγ] (Ac-EYKGECFTKDNTCK-NH2) | > 200 | > 200 |  |  | most of this peptide formed intramolecular, whereas a smaller part formed an intermolecular disulfide bond | did not exhibit antifungal activity | 
CC(=O)N[C@@H](CCC(=O)O)C(=O)N[C@@H](Cc1ccc(O)cc1)C(=O)N[C@@H](CCCCN)C(=O)NCC(=O)N[C@@H](CCCCN)C(=O)N[C@@H](CS)C(=O)N[C@@H](CCCCN)C(=O)N[C@H](C(=O)N[C@@H](CCCCN)C(=O)N[C@@H](CCCCN)C(=O)N[C@@H](CC(N)=O)C(=O)N[C@@H](CCCCN)C(=O)N[C@@H](CS)C(=O)N[C@@H](CCCCN)C(N)=O)[C@@H](C)O [NFAPimpγ] (Ac-EYKGKCKTKKNKCK-NH2) | >200 |  | highly reduce the proportion of cells able to multiply |  | total amount of the peptide was cyclized | effectively inhibit the growth | share of the peptide with intramolecular disulfide bridges (cyclic form) ([3]; –20 °C sample: 5 mg mL^–1 in sterile ddH2O stored at −20 °C for 7 days): approximately 60%; toxicity to various human cell lines [5]: not toxic; hemolysis (sheep blood): did not cause hemolysis
CC(=O)N[C@@H](CCC(=O)O)C(=O)N[C@@H](Cc1ccc(O)cc1)C(=O)N[C@@H](CCCCN)C(=O)NCC(=O)N[C@@H](CCCCN)C(=O)N[C@@H](CSC(C)(C)C)C(=O)N[C@@H](CCCCN)C(=O)N[C@H](C(=O)N[C@@H](CCCCN)C(=O)N[C@@H](CCCCN)C(=O)N[C@@H](CC(N)=O)C(=O)N[C@@H](CCCCN)C(=O)N[C@@H](CSC(C)(C)C)C(=O)N[C@@H](CCCCN)C(N)=O)[C@@H](C)O [NFAPimpγ^S-tBu] (Ac-EYKGKC(tBu)KTKKNKC(tBu)K-NH2) | 25 | 50 |  |  |  |  | MIC (A. fumigatus CBS 101355; storage sample not specified, LCM, 72 h at 30 °C): 25 μg mL^–1; growth of high-density C. albicans culture (C. albicans SC5314 [2]; 0.5× MIC, compared with unmodified NFAPimpγ): extended the time when the C. albicans culture started to multiply intensively; proportion of cells able to multiply (culture drops on YPD agar after treatment) (C. albicans SC5314 [2]; 1–2× MIC): highly reduce the proportion of cells able to multiply
Ac-EYKGKSKTKKNKSK-NH2 [NFAPimpγ^C6S,C13S] | >200 | 50 |  |  |  |  | growth of high-density C. albicans culture (C. albicans SC5314 [2]; [7]): could not fully inhibit the growth
CC[C@H](C)[C@H](NC(=O)[C@H](CCCCN)NC(=O)[C@H](CS)NC(=O)[C@H](CCCCN)NC(=O)[C@@H](NC(=O)[C@H](CCCCN)NC(=O)[C@@H](NC(=O)[C@H](CCC(=O)O)NC(C)=O)[C@@H](C)CC)[C@@H](C)CC)C(=O)N[C@@H](CCCCN)C(=O)N[C@@H](CCCCN)C(=O)N[C@H](C(=O)N[C@@H](CCCCN)C(=O)N[C@@H](CS)C(=O)N[C@@H](CCCCN)C(N)=O)[C@@H](C)CC [NFAPimpγGZ] (Ac-EIKIKCKIKKIKCK-NH2) | 25 | 12.5 | highly reduce the proportion of cells able to multiply | total or high growth inhibitions | fully oxidized to the cyclic form | effectively inhibit the growth | share of the peptide with intermolecular disulfide bridges (in words) ([3]; –20 °C sample): one-third; share of the peptide with intramolecular disulfide bridges (in words) ([3]; –20 °C sample): approximately one-third; growth of high-density C. albicans culture (C. albicans SC5314 [2]; 1× MIC): allowed the multiplication of C. albicans cells within 24 h; toxicity to various human cell lines [5]: impaired the viability of keratinocytes at higher concentrations; hemolysis (sheep blood): did not cause hemolysis
Ac-EYKGKCKTKKNKSK-NH2 [NFAPimpγ^C13S] | >200 | 50 |  |  |  |  | share of the peptide in dimer form [3, 6]: approximately 60%; growth of high-density C. albicans culture (C. albicans SC5314 [2]; [7]): could not fully inhibit the growth
